Measurements taken from ChEMBL document CHEMBL4118067, “Isosteroidal alkaloids as potent dual-binding site inhibitors of both acetylcholinesterase and butyrylcholinesterase from the bulbs of Fritillaria walujewii” (Eur J Med Chem, 2017).
pIC50: −log10 of the molar value. Calls of active or inactive are those of the source. The calls are words filed in the database; no cut-off is given here.

Key:
[1] = target: Acetylcholinesterase (Electrophorus electricus, UniProt O42275); assay: Inhibition of electric eel AChE using acetylthiocholine iodide as substrate preincubated for 15 mins followed by substrate addition measured for 30 mins by Ellman's method
Chain of Acetylcholinesterase (O42275 whole entry): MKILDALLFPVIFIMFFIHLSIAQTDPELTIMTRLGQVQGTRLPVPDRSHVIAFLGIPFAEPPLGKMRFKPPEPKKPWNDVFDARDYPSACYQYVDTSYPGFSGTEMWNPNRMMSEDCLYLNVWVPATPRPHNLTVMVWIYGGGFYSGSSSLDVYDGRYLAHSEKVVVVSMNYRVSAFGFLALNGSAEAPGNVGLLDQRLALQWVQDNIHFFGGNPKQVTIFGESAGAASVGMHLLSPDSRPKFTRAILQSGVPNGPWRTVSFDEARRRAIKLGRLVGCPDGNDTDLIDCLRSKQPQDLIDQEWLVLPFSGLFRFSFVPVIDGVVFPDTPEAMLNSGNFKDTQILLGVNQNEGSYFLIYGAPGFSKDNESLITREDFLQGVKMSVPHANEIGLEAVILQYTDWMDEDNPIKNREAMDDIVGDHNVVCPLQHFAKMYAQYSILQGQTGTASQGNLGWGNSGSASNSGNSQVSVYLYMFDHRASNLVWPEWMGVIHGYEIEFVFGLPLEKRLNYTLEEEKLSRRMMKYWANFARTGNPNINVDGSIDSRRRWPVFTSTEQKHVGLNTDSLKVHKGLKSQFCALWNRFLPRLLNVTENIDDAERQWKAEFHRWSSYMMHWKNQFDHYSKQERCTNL

[2] = target: Cholinesterase (Equus caballus, UniProt P81908); assay: Inhibition of equine serum BChE using butyrylthiocholine iodide as substrate preincubated for 15 mins followed by substrate addition measured for 30 mins by Ellman's method
Chain of Cholinesterase (P81908 whole entry): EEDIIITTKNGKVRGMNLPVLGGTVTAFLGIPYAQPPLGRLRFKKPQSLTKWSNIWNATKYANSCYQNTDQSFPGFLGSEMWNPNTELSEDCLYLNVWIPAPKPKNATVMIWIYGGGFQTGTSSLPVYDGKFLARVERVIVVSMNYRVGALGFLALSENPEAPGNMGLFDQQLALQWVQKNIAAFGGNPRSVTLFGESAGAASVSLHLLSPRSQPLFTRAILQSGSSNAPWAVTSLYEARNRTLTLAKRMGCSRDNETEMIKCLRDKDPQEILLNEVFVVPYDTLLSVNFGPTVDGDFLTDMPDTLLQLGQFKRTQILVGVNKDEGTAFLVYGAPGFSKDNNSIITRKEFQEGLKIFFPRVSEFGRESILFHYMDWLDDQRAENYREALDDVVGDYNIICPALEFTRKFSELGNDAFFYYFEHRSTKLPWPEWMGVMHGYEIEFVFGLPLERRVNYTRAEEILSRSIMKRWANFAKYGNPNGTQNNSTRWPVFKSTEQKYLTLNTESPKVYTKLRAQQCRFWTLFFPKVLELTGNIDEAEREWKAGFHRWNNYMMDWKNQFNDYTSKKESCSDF

[3] = Selectivity index, ratio of IC50 for equine serum BChE to IC50 for electric eel AChE
[4] = target: Acetylcholinesterase (Electrophorus electricus) (UniProt O42275); assay: Reversible inhibition of electric eel AChE at 6 to 16 uM using acetylthiocholine iodide as substrate preincubated for 15 mins followed by substrate addition measured for 30 mins by Ellman's method
Chain of Acetylcholinesterase (Electrophorus electricus) (O42275 24-633 limits assumed): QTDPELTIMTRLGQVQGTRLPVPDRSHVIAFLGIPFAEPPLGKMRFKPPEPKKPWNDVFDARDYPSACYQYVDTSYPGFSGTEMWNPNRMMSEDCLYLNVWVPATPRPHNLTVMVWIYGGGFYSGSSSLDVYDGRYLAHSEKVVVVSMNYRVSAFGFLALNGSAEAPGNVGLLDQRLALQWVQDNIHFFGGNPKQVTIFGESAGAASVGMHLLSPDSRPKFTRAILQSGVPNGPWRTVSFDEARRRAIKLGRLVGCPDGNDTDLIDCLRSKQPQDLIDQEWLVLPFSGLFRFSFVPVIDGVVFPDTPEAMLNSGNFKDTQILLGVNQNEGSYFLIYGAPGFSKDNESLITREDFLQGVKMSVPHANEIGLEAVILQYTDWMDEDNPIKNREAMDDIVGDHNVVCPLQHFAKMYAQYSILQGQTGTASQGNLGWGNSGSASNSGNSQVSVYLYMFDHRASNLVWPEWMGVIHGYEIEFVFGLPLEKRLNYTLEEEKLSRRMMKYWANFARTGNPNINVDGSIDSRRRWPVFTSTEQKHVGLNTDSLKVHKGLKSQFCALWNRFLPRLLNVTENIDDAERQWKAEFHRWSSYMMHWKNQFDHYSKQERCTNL

[5] = target: Acetylcholinesterase (Electrophorus electricus) (UniProt O42275); assay: Mixed-type inhibition of electric eel AChE at 6 to 24 uM using acetylthiocholine iodide as substrate preincubated for 15 mins followed by substrate addition measured for 30 mins by Lineweaver-Burk plot method
[6] = target: Acetylcholinesterase (Electrophorus electricus) (UniProt O42275); assay: Reversible inhibition of electric eel AChE at 2 to 10 uM using acetylthiocholine iodide as substrate preincubated for 15 mins followed by substrate addition measured for 30 mins by Ellman's method
[7] = target: Acetylcholinesterase (Electrophorus electricus) (UniProt O42275); assay: Mixed-type inhibition of electric eel AChE at 2 to 10 uM using acetylthiocholine iodide as substrate preincubated for 15 mins followed by substrate addition measured for 30 mins by Lineweaver-Burk plot method
[8] = target: Acetylcholinesterase (Electrophorus electricus) (UniProt O42275); assay: Mixed-type inhibition of electric eel AChE at 7 to 28 uM using acetylthiocholine iodide as substrate preincubated for 15 mins followed by substrate addition measured for 30 mins by Lineweaver-Burk plot method
[9] = target: Acetylcholinesterase (Electrophorus electricus) (UniProt O42275); assay: Mixed-type inhibition of electric eel AChE at 8 to 32 uM using acetylthiocholine iodide as substrate preincubated for 15 mins followed by substrate addition measured for 30 mins by Lineweaver-Burk plot method
[10] = target: Acetylcholinesterase (Electrophorus electricus) (UniProt O42275); assay: Reversible inhibition of electric eel AChE at 4 to 12 uM using acetylthiocholine iodide as substrate preincubated for 15 mins followed by substrate addition measured for 30 mins by Ellman's method
[11] = target: Acetylcholinesterase (Electrophorus electricus) (UniProt O42275); assay: Mixed-type inhibition of electric eel AChE at 4 to 20 uM using acetylthiocholine iodide as substrate preincubated for 15 mins followed by substrate addition measured for 30 mins by Lineweaver-Burk plot method
[12] = target: Acetylcholinesterase (Electrophorus electricus) (UniProt O42275); assay: Mixed-type inhibition of electric eel AChE at 4 to 16 uM using acetylthiocholine iodide as substrate preincubated for 15 mins followed by substrate addition measured for 30 mins by Lineweaver-Burk plot method

| SMILES | pIC50 [1] | pIC50 [2] | Ratio IC50 [3] | further results |
| --- | --- | --- | --- | --- |
| C[C@H]1CC[C@H]2[C@H](C)[C@@H]3CC[C@@H]4[C@@H](C[C@H]5[C@H]4CC(=O)[C@H]4C[C@@H](O[C@@H]6O[C@H](CO)[C@@H](O[C@@H]7O[C@H](CO)[C@@H](O)[C@H](O)[C@H]7O)[C@H](O)[C@H]6O)CC[C@@]45C)[C@@H]3CN2C1 | 5.01 | 5.24 | 0.58 | inhibition [4]: Active; inhibition [5]: Active |
| C[C@H]1CC[C@@H]2[C@@H](C)[C@@H]3CC[C@@H]4[C@@H](C[C@H]5[C@H]4C[C@@H](O)[C@H]4C[C@@H](O)CC[C@@]45C)[C@@H]3CN2C1 | 5.23 | 5.68 | 0.36 | inhibition [6]: Active; inhibition [7]: Active |
| C[C@H]1CC[C@H]2[C@H](C)[C@H]3CC[C@@H]4[C@@H](C[C@H]5[C@H]4C[C@@H](O)[C@H]4C[C@@H](O)CC[C@@]45C)[C@@H]3CN2C1 | 4.34 | 4.73 | 0.41 | – |
| C[C@H]1CC[C@H]2[C@H](C)[C@@H]3CC[C@@H]4[C@@H](C[C@H]5[C@H]4CC(=O)[C@H]4C[C@@H](O[C@@H]6O[C@H](CO)[C@@H](O)[C@H](O)[C@H]6O)CC[C@@]45C)[C@@H]3CN2C1 | 4.94 | 5.17 | 0.59 | inhibition [4]: Active; inhibition [8]: Active |
| C=C1C2(CC[C@H]3[C@@H]4CC(=O)[C@H]5C[C@@H](O)CC[C@]5(C)[C@H]4C[C@@]13O)O[C@@H]1C[C@H](C)CN[C@H]1[C@H]2C (stereo partly drawn) | 5.12 | 3.02 | 126 | inhibition [6]: Active; inhibition [9]: Active |
| CC1=C2C[C@H]3[C@@H](CC(=O)[C@H]4C[C@@H](O)CC[C@@]43C)[C@@H]2CCC12O[C@@H]1C[C@H](C)CN[C@H]1[C@H]2C (stereo partly drawn) | 4.03 | 3.82 | 1.63 | – |
| C[C@H]1CC[C@@H]2N(C1)C[C@H]1[C@@H]3C[C@H]4[C@@H](CC(=O)[C@H]5C[C@@H](O)CC[C@@]54C)[C@@H]3CC[C@H]1[C@]2(C)O [IMPERIALINE] | < 4.00 | < 4.00 | – | – |
| C[C@H]1CC[C@H]2[C@H](C)[C@@H]3CC[C@@H]4[C@@H](C[C@H]5[C@H]4CC(=O)[C@H]4C[C@@H](O)CC[C@@]45C)[C@@H]3CN2C1 | 5.08 | 5.52 | 0.36 | inhibition [10]: Active; inhibition [11]: Active |
| C[C@H]1CC[C@@H]2[C@@H](C)[C@@H]3CC[C@@H]4[C@@H](C[C@H]5[C@H]4C[C@@H](O)[C@H]4C[C@@H](O[C@@H]6O[C@H](CO)[C@@H](O)[C@H](O)[C@H]6O)CC[C@@]45C)[C@@H]3CN2C1 | 4.97 | 5.41 | 0.36 | inhibition [4]: Active; inhibition [5]: Active |
| C[C@H]1CC[C@@H]2[C@@H](C)[C@@H]3CC[C@@H]4[C@@H](C[C@H]5[C@H]4C[C@H](O)[C@H]4C[C@@H](O[C@@H]6O[C@H](CO)[C@@H](O)[C@H](O)[C@H]6O)CC[C@@]45C)[C@@H]3CN2C1 | 4.29 | 4.87 | 0.26 | – |
| C[C@H]1CC[C@@H]2N(C1)C[C@H]1[C@@H]3C[C@H]4[C@@H](CC(=O)[C@H]5C[C@@H](O[C@@H]6O[C@H](CO)[C@@H](O)[C@H](O)[C@H]6O)CC[C@@]54C)[C@@H]3CC[C@H]1[C@]2(C)O | < 4.00 | < 4.00 | – | – |
| C[C@H]1CC[C@@H]2[C@@H](C)[C@@H]3CC[C@@H]4[C@@H](C[C@H]5[C@H]4C[C@H](O)[C@H]4C[C@@H](O)CC[C@@]45C)[C@@H]3CN2C1 | 5.14 | 5.59 | 0.36 | inhibition [6]: Active; inhibition [12]: Active |
